Legend:
rat [1] = conditions: Subchronic oral toxicity in rodents, wistar, Feed, dose end: 90 day, group: systemic
dog = conditions: Subchronic oral toxicity in nonrodent, beagle, Feed, dose end: 118 day, group: systemic
rat [2] = conditions: Prenatal developmental toxicity study, sprague dawley, Oral, Gavage/Intubation, dose end: 19 GD
[3] = systemic / clinical chemistry / alanine aminotransferase (alt/sgpt) / alanine aminotransferase (alt/sgpt) + systemic / clinical chemistry / …
[4] = systemic / organ weight / liver / absolute + systemic / organ weight / liver / relative to body weight
[5] = systemic / clinical chemistry / creatinine / creatinine + systemic / clinical chemistry / urea nitrogen / urea nitrogen
[6] = systemic / clinical chemistry / creatinine / creatinine + systemic / clinical chemistry / urea nitrogen / urea nitrogen + systemic / …
[7] = group: developmental, developmental / developmental malformation / bone / bent + developmental / developmental malformation / bone / full supernumerary + …
[8] = group: maternal, reproductive / reproductive performance / resorptions / resorptions + systemic / in life observation / clinical signs / abnormal movements…

**Q.** `CNC.Cc1cc(Cl)ccc1OCC(=O)O` [MCPA-dimethylammonium] was tested. Which LOAEL (rat [1]; [3]) did it give?
**A.** 208 mg/kg/day

**Q.** And the NOAEL (rat [1]; [3])?
**A.** 42 mg/kg/day

**Q.** What about the LEL (rat [1]; [4]) of the same compound?
**A.** 4 mg/kg/day

**Q.** And the NEL (rat [1]; [4])?
**A.** < 4 mg/kg/day

**Q.** And the LEL (dog; [5])?
**A.** 2.4 mg/kg/day

**Q.** What about the LOAEL (dog; [5]) of the same compound?
**A.** 2.4 mg/kg/day

**Q.** And the NEL (dog; [6])?
**A.** 0.6 mg/kg/day

**Q.** What about the NOAEL (dog; [6]) of the same compound?
**A.** 0.6 mg/kg/day

**Q.** And the LEL (rat [2]; [7])?
**A.** 185 mg/kg/day

**Q.** What about the LOAEL (rat [2]; [7]) of the same compound?
**A.** 185 mg/kg/day

**Q.** What about the NEL (rat [2]; [7]) of the same compound?
**A.** 62 mg/kg/day

**Q.** What about the NOAEL (rat [2]; [7]) of the same compound?
**A.** 62 mg/kg/day

**Q.** And the LEL (rat [2]; [8])?
**A.** 185 mg/kg/day

**Q.** And the LOAEL (rat [2]; [8])?
**A.** 185 mg/kg/day

**Q.** What about the NEL (rat [2]; [8]) of the same compound?
**A.** 62 mg/kg/day

**Q.** And the NOAEL (rat [2]; [8])?
**A.** 62 mg/kg/day

From EPA's ToxRefDB 2
